Legend:
male diabetic ZDF rats = assay: Oral glucose tolerance test (oGTT) in male diabetic ZDF rats; format: in vivo, rat; settings: for % Inhibition of Glucose Excursion (dose: mg/kg): ZDF rats, glucose excursion AUC reduction relative to vehicle
Protocol: FIGS. 1 to 4, 16 and 17 show results of three independent experiments with three representative GPR119 agonists of the present invention, namely, Compound 28, Compound 62, and Compound 83. In each experiment, male ZDF rats (approximately 10-week old) were fasted for 18 hours and randomly grouped (n=6) to receive a GPR119 agonist (Compound 28, Compound 62, or Compound 83) at indicated doses (mg/kg body weight). Compounds were delivered orally via a gavage needle (p.o., volume 4 mL/kg) 1 h prior to glucose bolus (3 g/kg) (time=−60 min in FIGS. 1, 3, and 16), with a separate group receiving vehicle (20% hydroxypropyl-beta-cyclodextrin) as control in each experiment. At time 0 min the glucose bolus was administered. Levels of blood glucose were assessed using a glucometer (One-Touch Ultra™, LifeScan) at time −60 min (prior to compound administration), at 0 min (time when glucose bolus was given), and at 30, 60, 90, 120 min post glucose bolus. The plasma glucose excursion curves are given in FIGS. 1, 3, and 16, and glucose excursion AUC (area under the curve) reductions in compound treated animals relative to vehicle control are given in FIGS. 2, 4, and 17, and in Table 1.

male 129SVE mice = assay: Oral glucose tolerance test (oGTT) in male 129SVE mice; format: in vivo, mouse; settings: for % Inhibition of Glucose Excursion: AUC reduction relative to vehicle
Protocol: Male 129SVE mice (approximately 8-week old) were fasted for 18 h and randomly grouped (n=6) to receive a GPR119 agonist (Compound 28) at 1, 3, or 10 mg/kg (mg/kg body weight). The compound was delivered orally via a gavage needle (p.o., volume 4 mL/kg) 30 minutes prior to glucose bolus (3 g/kg) (time=−30 min in FIG. 5), with a separate group receiving vehicle (20% hydroxypropyl-beta-cyclodextrin) as control. At time 0 min the glucose bolus was administered. Levels of blood glucose were assessed using a glucometer (One-Touch Ultra™, LifeScan) at time −30 minute (prior to compound administration), at 0 min (at time when glucose bolus was given), and at 20, 40, 60, 120 minutes post glucose bolus. The plasma glucose excursion curve is given in FIG. 5, and glucose excursion AUC (area under the curve) reduction in compound treated animals relative to vehicle control is given in FIG. 6, and in Table 2.

incretin hormone GIP = assay: Incretin hormone GIP release in male 129SVE mice (Total GIP ELISA); format: in vivo, mouse; settings: 10 mpk p.o., plasma sample after 45 min, PET vehicle 72.5
Protocol: Male 129SVE mice (approximately 8-week old) were fasted for 18 h and randomly grouped (n=6) to receive a GPR119 agonist (Compound 28, Compound 73, Compound 71, Compound 62, and Compound 30) at 10 mpk dose (mg/kg body weight). Compounds were delivered orally via a gavage needle (p.o., volume 4 mL/kg), and after 45 min a blood sample was collected to determine plasma total GIP levels. A separate group received vehicle (PET: 80% PEG:10% Ethanol:10% Tween80™) as control. Plasma GIP levels were determined using a Total GIP ELISA kit from Millipore.

GPR119 = settings: combined administration with a DPP-IV inhibitor, compared with either agent alone; cited from earlier work
[1] = tested on: human patients suffering with type 2 diabetes; settings: oral administration, human patients with type 2 diabetes; cited from earlier work
humans = settings: cited from earlier work

## CC(C)OC(=O)N1CCC(O[C@H]2CC[C@H](Oc3cnc(S(C)(=O)=O)cn3)CC2)CC1 [Compound 28, isopropyl 4-((1r,4r)-4-(5-(methylsulfonyl)pyrazin-2-yloxy)cyclohexyloxy)piperidine-1-carboxylate]
Male diabetic ZDF rats; 10 mg/kg p.o. 1 h prior to glucose bolus (3 g/kg)
  % Inhibition of Glucose Excursion (dose: mg/kg): 54.7% (10)
Male diabetic ZDF rats; 30 mg/kg p.o. 1 h prior to glucose bolus (3 g/kg)
  % Inhibition of Glucose Excursion (dose: mg/kg): 76.5% (30)
Male diabetic ZDF rats; diabetic ZDF rats
  blood glucose after challenge with glucose: lowered blood glucose
Male 129SVE mice
  blood glucose after challenge with glucose: lowered blood glucose
Male 129SVE mice; 1 mg/kg p.o. 30 minutes prior to glucose bolus (3 g/kg)
  % Inhibition of Glucose Excursion: 24.9%
Male 129SVE mice; 3 mg/kg p.o. 30 minutes prior to glucose bolus (3 g/kg)
  % Inhibition of Glucose Excursion: 26.4%
Male 129SVE mice; 10 mg/kg p.o. 30 minutes prior to glucose bolus (3 g/kg)
  % Inhibition of Glucose Excursion: 35.7%
Incretin hormone GIP
  Total GIP, pg/mL (dose, mg/kg): 468.1 pg/mL

## CC(C)c1noc(C2CCN(c3ncnc(Nc4ccc(S(C)(=O)=O)cc4F)c3[N+](=O)[O-])CC2)n1 [Compound B111, (2-Fluoro-4-methanesulfonyl-phenyl)-{6-[4-(3-isopropyl-[1,2,4]oxadiazol-5-yl)-piperidin-1-yl]-5-nitro-pyrimidin-4-yl}-amine]
GPR119
  glucose tolerance: improved glucose tolerance to a significantly greater degree than either agent alone
  plasma GLP-1 levels: acutely increased plasma GLP-1 levels

## N[C@@H](CC(=O)N1CCn2c(nnc2C(F)(F)F)C1)Cc1cc(F)c(F)cc1F [sitagliptin, 3(R)-amino-1-[3-(trifluoromethyl)-5,6,7,8-tetrahydro[1,2,4]triazolo[4,3-a]pyrazin-7-yl]-4-(2,4,5-trifluorophenyl)butan-1-one]
[1]
  fasting glucose, postprandial glucose excursion and HbA1c levels: reduce fasting glucose and postprandial glucose excursion in association with significantly reduced HbA1c levels

## N#C[C@@H]1CCCN1C(=O)CNC12CC3CC(CC(O)(C3)C1)C2 [vildagliptin, 1-[2-(3-hydroxyadamant-1-ylamino)acetyl]pyrrolidine-2(S)-carbonitrile]
[1]
  fasting glucose, postprandial glucose excursion and HbA1c levels: reduce fasting glucose and postprandial glucose excursion in association with significantly reduced HbA1c levels

## PYY3-36: generated from PYY1-36 by cleavage of the N-terminal Tyr and Pro residues by dipeptidyl peptidase IV; Y2R selective agonist
humans; human studies, infusion, over 24 hours
  reduction of food intake: 33%
humans; human, after infusion
  time of decline to basal levels: ≤ 30 min
humans; human, infusion to reach normal postprandial circulatory concentrations
  time to peak serum levels of PYY3-36: ≤ 15 min

Source: patent US20130023494A1, “MODULATORS OF THE GPR119 RECEPTOR AND THE TREATMENT OF DISORDERS RELATED THERETO” (ARENA PHARMACEUTICALS, INC., priority 2010, published 2013)
